“Also recorded” adds a separate entry of the source.
Tests used:
Format in all cases: in vivo
[1] = Acute oral toxicity, Federal Hazardous Substances Act 16 CFR 1500.3(c)(2)(i)
Protocol: (§1) A cleaning composition composed of pure IBIB was tested for toxicity, skin irritation and eye irritation according to the protocol of the Federal Hazardous Substances Act, 16 CFR 1500.3(c)(2)(i), 1500.41 and 1500.42.

[2] = Skin irritation, 16 CFR 1500.41 and 1500.3(c)(4)
Protocol: as §1

[3] = Eye irritation, 16 CFR 1500.42 and 1500.3(c)(4)
Protocol: as §1

SMILES: CC(C)COC(=O)C(C)C [IBIB, Isobutyl isobutyrate]
- Acute oral toxicity conclusion ([1]; 16 CFR 1500.3(c)(2)(i)): non-toxic; also recorded: Not considered as toxic
- Acute Oral LD50 ([1]; dose level 5,000 mg/kg): Acute Oral LD50 greater than five (5) grams per gram body weight
- Skin irritation conclusion ([2]; 16 CFR 1500.41): not considered to be a primary skin irritant
- Primary Dermal Irritation Score (Average) ([2]; in vivo): 2.4
- Eye irritation conclusion ([3]; 16 CFR 1500.42): not considered to be a primary eye irritant
- Maximum Mean Total Score (Average) ([3]; eye irritation): 3.3
